Assay results from patent US20230045421A1 (priority 2018, published 2023).

The compounds below were run on HBV rcDNA (assay: HepDE19 assay with bDNA quantitation of HBV rcDNA). Conditions: HepDE19 assay, inhibition of formation of rcDNA; read-out: DE-19bDNA EC50.
Format: cell-based, hepatitis B virus
Procedure, shortened: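 Compounds, top concentration 25 μM in 8-point duplicate series, were applied to Tet-free HepDE19 cultures for 7 days. Branched-DNA quantitation of HBV rcDNA against untreated wells gave EC50 and EC90 by 4-parameter fit. Viability (CC50) came from ATP luminescence on parallel plates incubated 4 days.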

Structure (SMILES) | EC50
CC(c1c[nH]c(=O)c2ccccc12)N(CCCC(=O)O)C(=O)Nc1ccc(F)c(Cl)c1 (single isomer, unassigned) [Compound 227, 4-(3-(3-Chloro-4-fluorophenyl)-1-(1-(1-oxo-1,2-dihydroisoquinolin-4-yl)ethyl)ureido)butanoic acid] | 4.9 µM
COc1ccc2c(=O)[nH]cc(C(C)N(C)C(=O)Nc3ccc(F)c(Cl)c3)c2c1 (single isomer, unassigned) [Compound 180, 3-(3-Chloro-4-fluorophenyl)-1-(1-(6-methoxy-1-oxo-1,2-dihydroisoquinolin-4-yl)ethyl)-1-methylurea] | 1.4 µM
CCN(C(=O)Nc1ccc(F)c(Cl)c1)C(C)c1c[nH]c(=O)c2ccccc12 (single isomer, unassigned) [Compound 24, 3-(3-Chloro-4-fluorophenyl)-1-ethyl-1-(1-(1-oxo-1,2-dihydroisoquinolin-4-yl)ethyl)urea] | 3.2 µM
CC(c1c[nH]c(=O)c2ccccc12)N(CC[C@@H](C)O)C(=O)Nc1ccc(F)c(Cl)c1 (single isomer, unassigned) [Compound 211] | 2.7 µM
CC(c1cn(Cc2nc[nH]n2)c(=O)c2ccccc12)N(C)C(=O)Nc1ccc(F)c(Cl)c1 (single isomer, unassigned) [Compound 269, 1-(1-(2-((1H-1,2,4-Triazol-3-yl)methyl)-1-oxo-1,2-dihydroisoquinolin-4-yl)ethyl)-3-(3-chloro-4-fluorophenyl)-1-methylurea] | 0.56 µM
CC(=O)NCCN(C(=O)Nc1ccc(F)c(Cl)c1)C(C)c1c[nH]c(=O)c2ccccc12 (single isomer, unassigned) [Compound 138, N-(2-(3-(3-Chloro-4-fluorophenyl)-1-(1-(1-oxo-1,2-dihydroisoquinolin-4-yl)ethyl)ureido)ethyl)acetamide] | 19 µM
CC(c1c[nH]c(=O)c2ccccc12)N(CCC(=O)N(C)C)C(=O)Nc1ccc(F)c(Cl)c1 (single isomer, unassigned) [Compound 105, 3-(3-(3-Chloro-4-fluorophenyl)-1-(1-(1-oxo-1,2-dihydroisoquinolin-4-yl)ethyl)ureido)-N,N-dimethylpropanamide] | 3.4 µM
CC(c1c[nH]c(=O)c2ccccc12)N(CC(C)(C)CO)C(=O)Nc1ccc(F)c(Cl)c1 (single isomer, unassigned) [Compound 209, 3-(3-Chloro-4-fluorophenyl)-1-(3-hydroxy-2,2-dimethylpropyl)-1-(1-(1-oxo-1,2-dihydroisoquinolin-4-yl)ethyl)urea] | 7.9 µM

Same assay, conditions: HepDE19 assay, inhibition of formation of relaxed circular DNA (rcDNA), bDNA quantitation; read-out: DE-19bDNA EC50

Structure (SMILES) | EC50
CC(c1c[nH]c(=O)c2ccccc12)N(Cc1ccccn1)C(=O)Nc1ccc(F)c(Cl)c1 (single isomer, unassigned) [Compound 305, 3-(3-Chloro-4-fluorophenyl)-1-(1-(1-oxo-1,2-dihydroisoquinolin-4-yl)ethyl)-1-(pyridin-2-ylmethyl) urea] | 0.59 µM
CC(c1cnc(OCc2nc[nH]n2)c2cc(F)c(F)cc12)N(CCCO)C(=O)Nc1ccc(F)c(Cl)c1 (single isomer, unassigned) [Compound 364, 1-(1-(1-((1H-1,2,4-Triazol-3-yl)methoxy)-6,7-difluoroisoquinolin-4-yl)ethyl)-3-(3-chloro-4-fluorophenyl)-1-(3-hydroxypropyl)urea] | 2 µM
CC(c1c[nH]c(=O)c2c(F)c(F)ccc12)N(C)C(=O)NCc1cc(F)c(F)c(F)c1 (single isomer, unassigned) [Compound 494, 1-(1-(7,8-Difluoro-1-oxo-1,2-dihydroisoquinolin-4-yl)ethyl)-1-methyl-3-(3,4,5-trifluorobenzyl)urea] | 0.89 µM
CC(c1c[nH]c(=O)c2c(F)c(F)ccc12)N(C)C(=O)Nc1ccc(F)c(C(F)F)c1 (single isomer, unassigned) [Compound 504, 1-(1-(7,8-Difluoro-1-oxo-1,2-dihydroisoquinolin-4-yl)ethyl)-3-(3-(difluoromethyl)-4-fluorophenyl)-1-methylurea] | 0.015 µM
CC(c1c[nH]c(=O)c2cc(F)c(F)cc12)N(C)C(=O)Nc1ccnc(Cl)c1 (single isomer, unassigned) [Compound 419, 3-(2-Chloropyridin-4-yl)-1-(1-(6,7-difluoro-1-oxo-1,2-dihydroisoquinolin-4-yl)ethyl)-1-methylurea] | 0.048 µM
CC(c1c[nH]c(=O)c2cc(F)c(F)cc12)N(C)C(=O)Nc1ccc2cc[nH]c2c1 (single isomer, unassigned) [Compound 485, 1-(1-(6,7-Difluoro-1-oxo-1,2-dihydroisoquinolin-4-yl)ethyl)-3-(1H-indol-6-yl)-1-methylurea] | 9.9 µM
CC(c1cnc(CO)c2ccccc12)N(C)C(=O)Nc1ccc(F)c(Cl)c1 (single isomer, unassigned) [Compound 326, 3-(3-Chloro-4-fluorophenyl)-1-(1-(1-(hydroxymethyl)isoquinolin-4-yl)ethyl)-1-methylurea] | 16 µM
CC(c1c[nH]c(=O)c2ccccc12)N(Cc1ccncc1)C(=O)Nc1ccc(F)c(Cl)c1 (single isomer, unassigned) [Compound 308, 3-(3-Chloro-4-fluorophenyl)-1-(1-(1-oxo-1,2-dihydroisoquinolin-4-yl)ethyl)-1-(pyridin-4-ylmethyl) urea] | 0.13 µM
CC(c1c[nH]c(=O)c2c(F)c(F)ccc12)N(CCCO)C(=O)Nc1ccc(F)c(Cl)c1 (single isomer, unassigned) [Compound 335, 3-(3-Chloro-4-fluorophenyl)-1-(1-(7,8-difluoro-1-oxo-1,2-dihydroisoquinolin-4-yl)ethyl)-1-(3-hydroxypropyl)urea] | 0.006 µM
CC(c1c[nH]c(=O)c2c(F)cc(F)cc12)N(C)C(=O)Nc1ccc(F)c(Cl)c1 (single isomer, unassigned) [Compound 368, 3-(3-Chloro-4-fluorophenyl)-1-(1-(6,8-difluoro-1-oxo-1,2-dihydroisoquinolin-4-yl)ethyl)-1-methylurea] | 2.5 µM

Same assay, conditions: Hepatitis B virus, HepDE19, HepDE19 assay, inhibition of formation of rcDNA; read-out: DE-19bDNA EC50

Structure (SMILES) | EC50
Cc1cc(NC(=O)N(C)Cc2c[nH]c(=O)c3ccccc23)ccc1F [Compound 5, 3-(4-Fluoro-3-methylphenyl)-1-methyl-1-((1-oxo-1,2-dihydroisoquinolin-4-yl)methyl)urea] | 0.49 µM
C[C@H](c1c[nH]c(=O)c2ccccc12)N(C)C(=O)Nc1ccc(F)c(F)c1 [Compound 92, (R)-3-(3,4-Difluorophenyl)-1-methyl-1-(1-(1-oxo-1,2-dihydroisoquinolin-4-yl)ethyl)urea] | 0.23 µM
CCOc1ncc(CN(CC)C(=O)Nc2ccc(F)c(Cl)c2)c2ccccc12 [Compound 17, 3-(3-chloro-4-fluorophenyl)-1-((1-ethoxyisoquinolin-4-yl)methyl)-1-ethylurea] | 1.6 µM
CC(C)CN(C(=O)Nc1ccc(F)c(Cl)c1)C(C)c1c[nH]c(=O)c2ccccc12 (racemic) [Compound 135, 3-(3-chloro-4-fluorophenyl)-1-isobutyl-1-(1-(1-oxo-1,2-dihydroisoquinolin-4-yl)ethyl)urea] | 0.01 µM
CC(c1cn(CCO)c(=O)c2ccccc12)N(C)C(=O)Nc1ccc(F)c(Cl)c1 (single isomer, unassigned) [Compound 205, 3-(3-Chloro-4-fluorophenyl)-1-(1-(2-(2-hydroxyethyl)-1-oxo-1,2-dihydroisoquinolin-4-yl)ethyl)-1-methylurea] | 0.16 µM
CC(c1c[nH]c(=O)c2ccccc12)N(CC1CCN(C)CC1)C(=O)Nc1ccc(F)c(Cl)c1 (single isomer, unassigned) [Compound 207, 3-(3-Chloro-4-fluorophenyl)-1-((1-methylpiperidin-4-yl)methyl)-1-(1-(1-oxo-1,2-dihydroisoquinolin-4-yl)ethyl)urea] | 9 µM
CNc1ncc(C(C)N(C)C(=O)Nc2ccc(F)c(Cl)c2)c2nccnc12 (racemic) [Compound 136, 3-(3-chloro-4-fluorophenyl)-1-methyl-1-(1-(5-(methylamino)pyrido[3,4-b]pyrazin-8-yl)ethyl)urea] | 2.8 µM

Same assay, conditions: Hepatitis B virus, HepDE19, read-out: DE-19bDNA EC50 (μM), HepDE19 assay, inhibition of formation of rcDNA

Structure (SMILES) | EC50
CC(c1c[nH]c(=O)c2ccccc12)N(CC1COC(C)(C)OC1)C(=O)Nc1ccccc1 (single isomer, unassigned) [Compound 275, 1-((2,2-Dimethyl-1,3-dioxan-5-yl)methyl)-1-(1-(1-oxo-1,2-dihydroisoquinolin-4-yl)ethyl)-3-phenylurea] | 0.83 µM

Same assay, conditions: Hepatitis B virus, HepDE19, read-out: DE-19bDNA EC50 (μM), HepDE19 assay, inhibition of formation of relaxed circular DNA (rcDNA), bDNA quantitation

Structure (SMILES) | EC50
[2H]C([2H])([2H])N(C(=O)Nc1cccc(Cl)c1)C(C)c1c[nH]c(=O)c2c(F)c(F)ccc12 (single isomer, unassigned) [Compound 474, 3-(3-Chlorophenyl)-1-(1-(7,8-difluoro-1-oxo-1,2-dihydroisoquinolin-4-yl)ethyl)-1-(methyl-d3)urea] | 0.015 µM

Same assay, conditions: read-out: DE-19bDNA EC50; HepDE19 assay, inhibition of formation of rcDNA

Structure (SMILES) | EC50
CCC(c1c[nH]c(=O)c2ccccc12)N(CC)C(=O)Nc1ccc(F)c(Cl)c1 (single isomer, unassigned) [Compound 37, 3-(3-chloro-4-fluorophenyl)-1-ethyl-1-(1-(1-oxo-1,2-dihydroisoquinolin-4-yl)propyl)urea] | 0.26 µM

Same assay, conditions: read-out: DE-19bDNA EC50; HepDE19 assay, inhibition of formation of relaxed circular DNA (rcDNA), bDNA quantitation

Structure (SMILES) | EC50
CC(c1c[nH]c(=O)c2c(F)c(F)ccc12)N(C)C(=O)Nc1ccccc1 (single isomer, unassigned) [Compound 436, 1-(1-(7,8-difluoro-1-oxo-1,2-dihydroisoquinolin-4-yl)ethyl)-1-methyl-3-phenylurea] | 19.2 µM
CC(c1c[nH]c(=O)c2cc(F)c(F)cc12)N(C)C(=O)Nc1ccc(Cl)cc1 (single isomer, unassigned) [Compound 400, 3-(4-Chlorophenyl)-1-(1-(6,7-difluoro-1-oxo-1,2-dihydroisoquinolin-4-yl)ethyl)-1-methylurea] | 7.2 µM
